Assay results reported in patent US11793748B1, “Pharmaceutical compositions of aspirin for parenteral administration” (GOOD HEALTH, LLC, priority 2019, dated 2023).

How the values were obtained:
[1] = Stability of recrystallized aspirin powder; conditions: for % Assay / % S.A (salicylic acid impurity): 6 months 40° C./75% RH
[2] = Reconstitution trials for micronized aspirin with aqueous solutions containing bases; assay type: physicochemical; conditions: aspirin 5.0 mg/mL; reconstitution with meglumine
Description: […] […] Shaken up and down vigorously to check reconstitution and clarity.
The reconstitution of higher doses of aspirin with aqueous solutions of bases indicate superiority using a combination of meglumine and sodium citrate over same bases used separately.
Therefore, these dilute solutions of the invention are suitable for slow infusion for a longer time. For example, the infusion can be made over 30 minutes to about 100 minutes with an infusion rate of about 3 mL/min to 0.8 mL/min. The rate of infusion of the invention can depend on the clinical conditions of patients, and can be modified as necessary. In certain cases, a bolus injection of concentrated aspirin solutions may be required. The aspirin solution (50 mg/mL) of the invention can be given as a bolus injection (e.g., 10 mL within 2-5 minutes).

[3] = Effect of bases on reconstitution time for aspirin in propylene glycol; assay type: physicochemical; conditions: aspirin 40 mg/mL, with shaking
Description: Solutions of propylene glycol with different bases were prepared by sonicating mixtures of propylene glycol and bases. Aspirin was added to those solutions and shaken in a circular motion.

[4] = bicin, tricin, CAPS, TAPS, HEPES and AMPSO buffers; remained as suspended particles; cited from earlier work
[5] = Effect of lactose and mannitol combination on reconstitution time; assay type: physicochemical; conditions: aspirin 80 mg (120 sieve passed)
Description: A mixture of lactose and mannitol were tried to improve reconstitution time. Diluents were then prepared by dissolving base and sugars in water and followed by addition of PEG 300. The diluent was transferred to a vial containing aspirin, and the vial was shaken in a swirling motion.

[6] = Solubility and reconstitution of aspirin in semi-aqueous diluents; assay type: physicochemical; conditions: aspirin 80 mg (sieve 120 mesh passed), after shaking for 5 minutes
Description: Diluent solutions were prepared by mixing solvent and water. Aspirin was added and the vials were shaken in a swirling motion.

[7] = Reconstitution time for aspirin-lactose premix; assay type: physicochemical; conditions: aspirin 80 mg + 160 mg lactose premix (both 120 sieve passed), water 1.5 ml
Source text: […] The diluent was transferred to a vial containing aspirin triturated with lactose. The mixture was shaken in the vial in a swirling motion.

[8] = solubilization accompanied by aspirin degradation; cited from earlier work
[9] = Stability of reconstituted aspirin solutions by HPLC; assay type: physicochemical
Description: Stability was determined by HPLC analysis using the following parameters:
Mobile Phase: Solution containing 15% acetonitrile and 85% water with 2 g/L of heptanesulfonate sodium. The pH of the solution was adjusted to 3.4.
Injection volume: 10 μl, the concentration of aspirin in sample and standard injections were maintained at about 0.5 mg/mL.
The stability of Trials 3-5 was tested using the HPLC method described above.

[10] = Effect of lactose on reconstitution time in solvent-water mixture; assay type: physicochemical; conditions: aspirin 80 mg, lactose 80 mg
Description: Diluent Preparation: Water, lactose, and base were taken in a vial and sonicated until a clear solution is formed. Solvent was then added and mixed for a minute. To these diluents, aspirin was added and shaken in a swirling motion.

[11] = Solubility testing of aspirin in commonly used co-solvents; assay type: physicochemical; conditions: 120 mg/3 mL; for Reconstitution time for milled API (Approx. 124 μm, BSS Sieve 120 passed): after shaking
Description: The solubility of aspirin was determined using propylene glycol and polyethylene glycol (PEG-300 and PEG-400), which are widely used in intravenous formulations.

[12] = Lysine 40 mg, lactose 80 mg + mannitol 80 mg, water 1.2 ml + PEG-300 1.8 ml
[13] = Meglumine 40 mg, lactose 20 mg + mannitol 60 mg, distilled water 1.2 ml + PEG 300 1.8 ml
[14] = Meglumine 40 mg, lactose 20 mg + mannitol 60 mg, distilled water 1.5 ml + PEG 300 1.5 ml
[15] = Meglumine 40 mg, lactose 20 mg + mannitol 60 mg, distilled water 1.8 ml + PEG 300 1.2 ml
[16] = Tris 40 mg, lactose 20 mg + mannitol 60 mg, distilled water 1.2 ml + PEG 300 1.8 ml
[17] = Tris 40 mg, lactose 20 mg + mannitol 60 mg, distilled water 1.5 ml + PEG 300 1.5 ml
[18] = Tris 40 mg, lactose 20 mg + mannitol 60 mg, distilled water 1.8 ml + PEG 300 1.2 ml
[19] = Tris 40 mg, lactose 80 mg + mannitol 80 mg, water 1.2 ml + PEG-300 1.8 ml
[20] = Tris 40 mg, lactose 80 mg + mannitol 80 mg, water 1.5 ml + PEG-300 1.5 ml
[21] = Tris 40 mg, lactose 80 mg + mannitol 80 mg, water 1.8 ml + PEG-300 1.2 ml
[22] = Aspirin API, not reconstituted (reference line of stability tables)
[23] = Lysine 40 mg, water 1.8 ml + PEG 300 1.2 ml
[24] = Lysine 40 mg, water 1.8 ml + PEG 400 1.2 ml
[25] = Tris 40 mg, water 1.8 ml + PEG 300 1.2 ml
[26] = Tris 40 mg, water 1.8 ml + PEG 400 1.2 ml

CC(=O)Oc1ccccc1C(=O)O [Recrystallization from Isopropanol]
% Assay ([1]; recrystallized powder): 99.35%

CC(=O)Oc1ccccc1C(=O)O [Aspirin, aspirin]
time to clear solution on reconstitution [2]: ≤ 2 min
Reconstitution time for milled API (Approx. 124 μm, BSS Sieve 120 passed) ([3]; propylene glycol with 10 mg/mL Arginine): 3 minutes with shaking.
Reconstitution time for milled API (Approx. 124 μm, BSS Sieve 120 passed) ([3]; propylene glycol with 10 mg/mL Lysine): 1.40 minutes with shaking.
Reconstitution time for milled API (Approx. 124 μm, BSS Sieve 120 passed) ([3]; propylene glycol with 10 mg/mL Meglumine): 2 minutes with shaking.
Reconstitution time for milled API (Approx. 124 μm, BSS Sieve 120 passed) ([3]; propylene glycol with 10 mg/mL Tromethamine): 1.45 minutes with shaking.
period stable at room temperature ([1]; room temperature, inferred from accelerated stability data): at least 2 years
solubility in aqueous buffers [4]: poor
Observation [5, 12]: hazy
Reconstitution time [5, 12]: 2.00 min
Observation [5, 13]: hazy
Reconstitution time [5, 13]: 2.00 min
Observation [5, 14]: Clear
Reconstitution time [5, 14]: 2.20 min
Observation [5, 15]: Clear
Reconstitution time [5, 15]: 2.30 min
Observation [5, 16]: Clear
Reconstitution time [5, 16]: 2.00 min
Observation [5, 17]: Clear
Reconstitution time [5, 17]: 2.10 min
Observation [5, 18]: Clear
Reconstitution time [5, 18]: 2.30 min
Observation [5, 19]: hazy
Reconstitution time [5, 19]: 2.10 min
Observation [5, 20]: Clear
Reconstitution time [5, 20]: 2.25 min
Observation [5, 21]: Clear
Reconstitution time [5, 21]: 2.10 min
Observation ([6]; 1.8 mL PEG 300 + 1.2 mL water): Turbid with particles
Observation ([6]; 1.8 mL PEG 400 + 1.2 mL water): Turbid with particles
Observation ([6]; 1.8 mL propylene glycol + 1.2 mL water): Turbid with particles
Observation ([7]; Tris 30 mg): Clear
Reconstitution time ([7]; Tris 30 mg): 2.00 min
Observation ([7]; Tris 35 mg): Clear
Reconstitution time ([7]; Tris 35 mg): 1.25 min
Observation ([7]; Tris 40 mg): Clear
Reconstitution time ([7]; Tris 40 mg): 1.00 min
Observation ([7]; Tris 50 mg): hazy
Reconstitution time ([7]; Tris 50 mg): 1.40 min
solubility in aqueous alkali hydroxide solutions and aqueous bicarbonate solutions [8]: soluble
% Salicylic acid [9, 22]: 0.24%
Aspirin peak purity [9, 22]: 99.76%
period for which reconstituted aspirin was stable ([9]; higher concentration (50 mg/mL), aqueous solution containing both meglumine and sodium citrate, 2-8° C.): about 5 hours
Observation [10, 23]: Clear
Reconstitution time [10, 23]: 3.15 min
Observation [10, 24]: Clear
Reconstitution time [10, 24]: 3.50 min
Observation [10, 25]: Clear
Reconstitution time [10, 25]: 3.20 min
Observation [10, 26]: Clear
Reconstitution time [10, 26]: 2.40 min
Reconstitution time for unmilled Aspirin ([11]; PEG-300): Not easily soluble,
Reconstitution time for milled API (Approx. 124 μm, BSS Sieve 120 passed) ([11]; PEG-300): Soluble in 3 minutes,
Reconstitution time for unmilled Aspirin ([11]; PEG-400): Not easily soluble,
Reconstitution time for milled API (Approx. 124 μm, BSS Sieve 120 passed) ([11]; PEG-400): Soluble in 3 minutes,
Reconstitution time for unmilled Aspirin ([11]; propylene glycol): Not easily soluble,
Reconstitution time for milled API (Approx. 124 μm, BSS Sieve 120 passed) ([11]; propylene glycol): Soluble in 3 minutes,

CC(=O)Oc1ccccc1C(=O)O [Recrystallization from Acetone]
% Assay ([1]; recrystallized powder): 97.20%
% S.A (salicylic acid impurity) ([1]; recrystallized powder): 0.505%

CC(=O)Oc1ccccc1C(=O)O [Recrystallization from Ethanol]
% Assay ([1]; recrystallized powder): 97.72%
% S.A (salicylic acid impurity) ([1]; recrystallized powder): 0.452%
stability at accelerated conditions ([1]; recrystallized powder, accelerated conditions (6 months 40° C./75% RH)): stable
